Reference: ChEMBL document CHEMBL1201862, “PubChem BioAssay data set” (2004)
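Briefly, cells in 96-well plates were exposed to five compound concentrations for 48 h, and endpoints were estimated by linear interpolation. GI50 is the concentration that inhibits growth by half.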 The source made the active and inactive calls. Cut-off read from the data, not from the text of the source: active = GI50 up to about 1.1 µM and inactive = higher.

How the values were obtained:
Experiment in all cases: NCI tumour cell line growth inhibition, 48 h
786-0 = test system: 786-0
A498 = test system: A498
HCT-116 = test system: HCT-116
HT-29 = test system: HT-29
LOX IMVI = test system: LOX IMVI
M14 = test system: M14
Malme-3M = test system: Malme-3M
NCI-H226 = test system: NCI-H226
NCI-H23 = test system: NCI-H23
NCI-H460 = test system: NCI-H460
OVCAR-5 = test system: OVCAR-5
OVCAR-8 = test system: OVCAR-8
SF-539 = test system: SF-539
SK-OV-3 = test system: SK-OV-3
UACC-257 = test system: UACC-257
UO-31 = test system: UO-31
HOP-92 = test system: HOP-92

Measured: GI50

NC(N)NCCCc1cn2c(n1)C1CCCN1C(=O)C2Cc1ccccc1 (stereo not drawn)
inactive: 786-0 > 100 µM | A498 > 100 µM | HCT-116 > 100 µM | HT-29 > 100 µM | LOX IMVI > 100 µM | M14 > 100 µM | Malme-3M > 100 µM | NCI-H226 > 100 µM | NCI-H23 > 100 µM | NCI-H460 > 100 µM | OVCAR-5 > 100 µM | OVCAR-8 > 100 µM | SF-539 > 100 µM | SK-OV-3 > 100 µM | UACC-257 > 100 µM | UO-31 > 100 µM

O=[N+]([O-])C(=C1c2ccccc2-c2ccccc21)[N+](=O)[O-]
inactive: 786-0 > 100 µM | A498 57.3 µM | HCT-116 38 µM | HT-29 50.6 µM | LOX IMVI 83.4 µM | M14 > 100 µM | NCI-H226 69.2 µM | NCI-H23 > 10 µM | NCI-H460 48 µM | OVCAR-5 91.2 µM | OVCAR-8 > 100 µM | SF-539 > 100 µM | UACC-257 52.8 µM | UO-31 52.4 µM

Cc1c(C2Cc3ccccc3N2)c2ccccc2n1C (stereo not drawn)
inactive: 786-0 > 100 µM | A498 > 100 µM | HCT-116 > 100 µM | HT-29 > 100 µM | LOX IMVI > 100 µM | M14 > 100 µM | Malme-3M > 100 µM | NCI-H226 > 100 µM | NCI-H23 > 100 µM | NCI-H460 79.1 µM | OVCAR-5 > 100 µM | OVCAR-8 > 100 µM | SF-539 > 100 µM | SK-OV-3 > 100 µM | UACC-257 > 100 µM | UO-31 > 100 µM

CCCc1n[nH]c(CCC(=O)N(Cc2ccccc2)Cc2ccccc2)c1CC
inactive: 786-0 > 100 µM | A498 > 100 µM | HT-29 > 100 µM | LOX IMVI > 100 µM | M14 > 100 µM | Malme-3M > 100 µM | NCI-H226 > 100 µM | NCI-H23 > 100 µM | NCI-H460 > 100 µM | OVCAR-5 > 100 µM | OVCAR-8 > 100 µM | SF-539 > 100 µM | SK-OV-3 > 100 µM | UACC-257 > 100 µM | UO-31 > 100 µM

Cn1c(=O)oc2cc(C3CCC(=O)N3Cc3csc(-c4ccccc4)n3)ccc21 (stereo not drawn)
inactive: 786-0 > 100 µM | HCT-116 > 100 µM | HT-29 79.1 µM | LOX IMVI > 100 µM | M14 > 100 µM | Malme-3M > 100 µM | NCI-H226 > 100 µM | NCI-H23 > 100 µM | NCI-H460 > 100 µM | OVCAR-5 > 100 µM | OVCAR-8 > 100 µM | SF-539 > 100 µM | SK-OV-3 > 100 µM | UACC-257 > 100 µM | UO-31 52.5 µM

CN(CCCN1C(=O)c2cccc3cc([N+](=O)[O-])cc(c23)C1=O)CCN(C)CCCN1C(=O)c2cccc3cc([N+](=O)[O-])cc(c23)C1=O
inactive: 786-0 13.6 µM | A498 > 39.3 µM | HCT-116 11.7 µM | HT-29 7.67 µM | M14 > 39.3 µM | Malme-3M 25.9 µM | NCI-H226 > 39.3 µM | NCI-H23 > 39.3 µM | NCI-H460 6.73 µM | OVCAR-5 > 39.3 µM | OVCAR-8 2.74 µM | SF-539 29.7 µM | SK-OV-3 > 39.3 µM | UACC-257 > 39.3 µM

c1ccc2c(c1)Cc1c(Cc3csc4ccccc34)ccc3cccc-2c13
inactive: 786-0 > 100 µM | HCT-116 > 100 µM | HOP-92 > 100 µM | HT-29 > 100 µM | M14 > 100 µM | Malme-3M > 100 µM | NCI-H23 > 100 µM | NCI-H460 > 100 µM | OVCAR-5 > 100 µM | OVCAR-8 > 100 µM | SF-539 > 100 µM | UACC-257 > 100 µM | UO-31 > 100 µM
